Assay results as given in US20160222056A1, “SUBSTITUTED PHENYLALANINE DERIVATIVES” (BAYER PHARMA AKTIENGESELLSCHAFT, priority 2013, published 2016).
Counter-ions that a name gives are not always drawn. Like-named read-outs stand apart in the source and are kept apart here.

Columns and labels:
human and animal plasma = experiment: Anticoagulatory activity: activated partial thromboplastin time (aPTT) in plasma; format: biochemical; conditions: in vitro in plasma, C.K. Prest kit, 37° C. for 3 minutes; plasma species of Table B not stated
Procedure: The anticoagulatory activity of the test substances is determined in vitro in human and animal plasma (for example mouse, rat, rabbit, pig and dog plasma). To this end, blood is drawn off in a mixing ratio of sodium citrate/blood of 1:9 using a 0.11 molar sodium citrate solution as receiver. Immediately after the blood has been drawn off, it is mixed thoroughly and centrifuged at about 4000 g for 15 minutes. The supernatant is pipetted off.
The activated partial thromboplastin time (aPTT) is determined in the presence of varying concentrations of test substance or the corresponding solvent using a commercial test kit (C.K. Prest from Diagnostica Stago). The test compounds are incubated with the plasma and the PTT reagent (cephalin, kaolin) at 37° C. for 3 minutes. Coagulation is then started by addition of 25 mM aqueous calcium chloride, and the time when coagulation occurs is determined. The concentration of test substance which brings about a 1.5-fold extension of the aPTT is determined.

human factor XIa = biological target: T1, human factor XIa (Homo sapiens, UniProt P03951); experiment: Measurement of FXIa inhibition (fluorogenic peptide substrate); format: biochemical
T1 construct: purchased Kordia
T1 sequence (P03951 388-625 limits assumed): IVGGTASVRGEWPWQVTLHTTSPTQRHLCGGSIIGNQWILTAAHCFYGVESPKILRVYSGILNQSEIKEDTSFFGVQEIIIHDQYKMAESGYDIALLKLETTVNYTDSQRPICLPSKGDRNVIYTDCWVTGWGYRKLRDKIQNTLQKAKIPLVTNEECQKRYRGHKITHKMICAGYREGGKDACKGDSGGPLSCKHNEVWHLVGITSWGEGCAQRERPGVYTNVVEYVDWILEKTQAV
T1 sequence (P03951 19-387 partner limits assumed): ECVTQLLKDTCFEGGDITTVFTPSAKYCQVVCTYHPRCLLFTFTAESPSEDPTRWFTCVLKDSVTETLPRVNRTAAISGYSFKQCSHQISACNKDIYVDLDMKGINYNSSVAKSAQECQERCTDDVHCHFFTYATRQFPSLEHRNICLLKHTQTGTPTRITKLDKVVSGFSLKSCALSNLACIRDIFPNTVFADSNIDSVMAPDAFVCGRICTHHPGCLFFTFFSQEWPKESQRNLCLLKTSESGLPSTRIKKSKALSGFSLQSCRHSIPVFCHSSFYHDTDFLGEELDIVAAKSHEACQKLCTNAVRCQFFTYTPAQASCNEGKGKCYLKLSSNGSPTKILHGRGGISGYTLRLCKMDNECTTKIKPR
Procedure: To determine the factor XIa inhibition of the substances according to the invention, a biochemical test system is used which utilizes the reaction of a peptidic factor XIa substrate to determine the enzymatic activity of human factor XIa. Here, factor XIa cleaves from the peptic factor XIa substrate the C-terminal aminomethylcoumarin (AMC), the fluorescence of which is measured. The determinations are carried out in microtitre plates.
Test substances are dissolved in dimethyl sulphoxide and serially diluted in dimethyl sulphoxide (3000 μM to 0.0078 μM; resulting final concentrations in the test: 50 μM to 0.00013 μM). In each case 1 μl of the diluted substance solutions are placed into the wells of white microtitre plates from Greiner (384 wells). Subsequently, the following are added successively: 20 μl of assay buffer (50 mmol/1 Tris buffer pH 7.4; 100 mmol/1 sodium chloride; 5 mmol/1 calcium chloride; 0.1% bovine serum albumin) and 20 μl of factor XIa from Kordia (0.45 nM in assay buffer). After 15 min of incubation, the enzyme reaction is started by addition of 20 μl of the factor XIa substrate Boc-Glu(OBzl)-Ala-Arg-AMC dissolved in assay buffer (10 μM in assay buffer) from Bachem, the mixture is incubated at room temperature (22° C.) for 30 min and fluorescence is then measured (excitation: 360 nm, emission: 460 nm). The measured emissions of the test batches with test substance are compared to those of control batches without test substance (only dimethyl sulphoxide instead of test substance in dimethyl sulphoxide), and the IC50 values are calculated from the concentration/activity relationships.

[1] = human factor XIa from Kordia, substrate Boc-Glu(OBzl)-Ala-Arg-AMC, 30 min at 22° C., read-out: IC50 (FXIa inhibition)

SMILES | aPTT (concentration of test substance which brings about a 1.5-fold extension of the aPTT) (human and animal plasma) [µmol/L] | IC50 (human factor XIa; [1]) [nM] | IC50 (human factor XIa) [nM]
Cc1cc(C(=O)N[C@H]2CC[C@H](N3CCOCC3)CC2)ncc1-c1ccc(C[C@H](NC(=O)[C@H]2CC[C@H](CN)CC2)C(=O)Nc2ccc(-c3nnn[nH]3)cc2)cc1 [Example 13, N-alpha-{[trans-4-(Aminomethyl)cyclohexyl]carbonyl}-4-(4-methyl-6-{[trans-4-(morpholin-4-yl)cyclohexyl]carbamoyl}pyridin-3-yl)-N-[4-(1H-tetrazol-5-yl)phenyl]-L-phenylalaninamide hydrochloride] | 0.08 | 0.9 | 
Cc1nc(C(=O)N[C@H]2CCNC2)ccc1-c1ccc(C[C@H](NC(=O)[C@H]2CC[C@H](CN)CC2)C(=O)Nc2ccc3[nH]c(=O)[nH]c3c2)cc1 [Example 14, N-alpha-{[trans-4-(Aminomethyl)cyclohexyl]carbonyl}-4-{2-methyl-6-[(3S)-pyrrolidin-3-ylcarbamoyl]pyridin-3-yl}-N-(2-oxo-2,3-dihydro-1H-benzimidazol-5-yl)-L-phenylalaninamide hydrochloride] | 0.08 | 30 | 
Cc1nc(C(=O)N[C@H]2CCNC2)ccc1-c1ccc(C[C@H](NC(=O)[C@H]2CC[C@H](CN)CC2)C(=O)Nc2ccc(-c3nn[nH]n3)cc2)cc1 [Example 15, N-alpha-{[trans-4-(Aminomethyl)cyclohexyl]carbonyl}-4-{2-methyl-6-[(3S)-pyrrolidin-3-ylcarbamoyl]pyridin-3-yl}-N-[4-(2H-tetrazol-5-yl)phenyl]-L-phenylalaninamide hydrochloride] | 0.1 | 3.2 | 
Cc1nc(C(=O)NC2C3CNCC32)ccc1-c1ccc(C[C@H](NC(=O)[C@H]2CC[C@H](CN)CC2)C(=O)Nc2ccc(-c3nn[nH]n3)cc2)cc1 (stereo partly drawn) [Example 16, N-alpha-{[trans-4-(Aminomethyl)cyclohexyl]carbonyl}-4-[6-(3-azabicyclo[3.1.0]hex-6-ylcarbamoyl)-2-methylpyridin-3-yl]-N-[4-(2H-tetrazol-5-yl)phenyl]-L-phenylalaninamide hydrochloride] | 0.11 | 8.1 | 
Cc1nc(C(=O)N[C@@H]2CCNC2)ccc1-c1ccc(C[C@H](NC(=O)[C@H]2CC[C@H](CN)CC2)C(=O)Nc2ccc(-c3nn[nH]n3)cc2)cc1 [Example 17, N-alpha-{[trans-4-(Aminomethyl)cyclohexyl]carbonyl}-4-{2-methyl-6-[(3R)-pyrrolidin-3-ylcarbamoyl]pyridin-3-yl}-N-[4-(2H-tetrazol-5-yl)phenyl]-L-phenylalaninamide hydrochloride] | 0.12 | 5 | 
Cc1nc(C(=O)N[C@@H]2CCN[C@H](C)C2)ccc1-c1ccc(C[C@H](NC(=O)[C@H]2CC[C@H](CN)CC2)C(=O)Nc2ccc(-c3nn[nH]n3)cc2)cc1 [Example 18, N-alpha-{[trans-4-(Aminomethyl)cyclohexyl]carbonyl}-4-(2-methyl-6-{[(2R,4R)-2-methylpiperidin-4-yl]carbamoyl}pyridin-3-yl)-N-[4-(2H-tetrazol-5-yl)phenyl]-L-phenylalaninamide hydrochloride] | 0.12 |  | 4.5
Cc1nc(C(=O)N[C@@H]2CCN(C)C2)ccc1-c1ccc(C[C@H](NC(=O)[C@H]2CC[C@H](CN)CC2)C(=O)Nc2ccc(-c3nn[nH]n3)cc2)cc1 [Example 19, N-alpha-{[trans-4-(Aminomethyl)cyclohexyl]carbonyl}-4-(2-methyl-6-{[(3R)-1-methylpyrrolidin-3-yl]carbamoyl}pyridin-3-yl)-N-[4-(2H-tetrazol-5-yl)phenyl]-L-phenylalaninamide hydrochloride] | 0.12 | 4.5 | 
Cc1cc(C(=O)NC2CNCC(F)(F)C2)ncc1-c1ccc(C[C@H](NC(=O)[C@H]2CC[C@H](CN)CC2)C(=O)Nc2ccc(-c3nnn[nH]3)cc2)cc1 (stereo partly drawn) [Example 20, N-alpha-{[trans-4-(Aminomethyl)cyclohexyl]carbonyl}-4-{6-[(5,5-difluoropiperidin-3-yl)carbamoyl]-4-methylpyridin-3-yl}-N-[4-(1H-tetrazol-5-yl)phenyl]-L-phenylalaninamide hydrochloride] | 0.13 | 3.9 | 
Cc1cc(C(=O)N[C@@H]2CCCNC2=O)ncc1-c1ccc(C[C@H](NC(=O)[C@H]2CC[C@H](CN)CC2)C(=O)Nc2ccc(-c3nnn[nH]3)cc2)cc1 [Example 21, N-alpha-{[trans-4-(Aminomethyl)cyclohexyl]carbonyl}-4-(4-methyl-6-{[(3R)-2-oxopiperidin-3-yl]carbamoyl}pyridin-3-yl)-N-[4-(1H-tetrazol-5-yl)phenyl]-L-phenylalaninamide hydrochloride] | 0.15 | 1.3 | 
Cc1nc(C(=O)NC2CCC(O)CC2)ccc1-c1ccc(C[C@H](NC(=O)[C@H]2CC[C@H](CN)CC2)C(=O)Nc2ccc(-c3nn[nH]n3)cc2)cc1 (stereo partly drawn) [Example 22, N-alpha-{[trans-4-(Aminomethyl)cyclohexyl]carbonyl}-4-{6-[(4-hydroxycyclohexyl)carbamoyl]-2-methylpyridin-3-yl}-N-[4-(2H-tetrazol-5-yl)phenyl]-L-phenylalaninamide hydrochloride] | 0.16 | 2.5 | 
CCN(CC)CCCNC(=O)c1ccc(-c2ccc(C[C@H](NC(=O)[C@H]3CC[C@H](CN)CC3)C(=O)Nc3ccc(-c4nn[nH]n4)cc3)cc2)c(C)n1 [Example 24, N-alpha-{[trans-4-(Aminomethyl)cyclohexyl]carbonyl}-4-(6-{[3-(diethylamino)propyl]-carbamoyl}-2-methylpyridin-3-yl)-N-[4-(2H-tetrazol-5-yl)phenyl]-L-phenylalaninamide hydrochloride] | 0.17 | 6 | 
Cc1cc(C(=O)N2CCNC(C)C2)ncc1-c1ccc(C[C@H](NC(=O)[C@H]2CC[C@H](CN)CC2)C(=O)Nc2ccc(-c3nnn[nH]3)cc2)cc1 (stereo partly drawn) [Example 25, N-alpha-{[trans-4-(Aminomethyl)cyclohexyl]carbonyl}-4-{4-methyl-6-[(3-methylpiperazin-1-yl)carbonyl]pyridin-3-yl}-N-[4-(1H-tetrazol-5-yl)phenyl]-L-phenylalaninamide hydrochloride] | 0.18 | 4.2 | 
Cc1nc(C(=O)N[C@@H]2CCNC2=O)ccc1-c1ccc(C[C@H](NC(=O)[C@H]2CC[C@H](CN)CC2)C(=O)Nc2ccc(-c3nn[nH]n3)cc2)cc1 [Example 26, N-alpha-{[trans-4-(Aminomethyl)cyclohexyl]carbonyl}-4-(2-methyl-6-{[(3R)-2-oxopyrrolidin-3-yl]carbamoyl}pyridin-3-yl)-N-[4-(2H-tetrazol-5-yl)phenyl]-L-phenylalaninamide hydrochloride] | 0.22 | 1.3 | 
Cc1nc(C(=O)NC2CCC(N(C)C)CC2)ccc1-c1ccc(C[C@H](NC(=O)[C@H]2CC[C@H](CN)CC2)C(=O)Nc2ccc3[nH]c(=O)[nH]c3c2)cc1 (stereo partly drawn) [Example 27, N-alpha-{[trans-4-(Aminomethyl)cyclohexyl]carbonyl}-4-(6-{[4-(dimethylamino)cyclohexyl]-carbamoyl}-2-methylpyridin-3-yl)-N-(2-oxo-2,3-dihydro-1H-benzimidazol-5-yl)-L-phenylalaninamide hydrochloride] | 0.22 | 19 | 
Cc1cc(C(=O)N[C@@H]2CCCNC2=O)ncc1-c1ccc(C[C@H](NC(=O)[C@H]2CC[C@H](CN)CC2)C(=O)Nc2ccc3[nH]c(=O)[nH]c3c2)cc1 [Example 28, N-alpha-{[trans-4-(Aminomethyl)cyclohexyl]carbonyl}-4-(4-methyl-6-{[(3R)-2-oxopiperidin-3-yl]carbamoyl}pyridin-3-yl)-N-(2-oxo-2,3-dihydro-1H-benzimidazol-5-yl)-L-phenylalaninamide hydrochloride] | 0.39 | 20 | 
